Key:
[1] = target: T1, wtKIT (Homo sapiens, UniProt P10721); assay: HTRF biochemical assay, wtKIT (phosphorylation of a peptide substrate); details: Table 4
T1 construct: 1888289AM in the reaction mixtures
Outline: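 HTRF read-out of FAM-peptide (1 µM) phosphorylation after anti-phosphotyrosine antibody addition and EDTA quench. Reaction: 5.0 nM wtKIT, 400 µM ATP, 10 mM Mn2+, HEPES pH 7.5, 1% DMSO, 3 h, 25 °C; optional enzyme-compound preincubation; enzyme level set for 10-20% conversion.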

[2] = target: T1, wtKIT; assay: Caliper biochemical assay, wtKIT; details: Table 6, read-out: KIT Biochemical IC50 avg
Outline: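 Mobility-shift read-out: after EDTA stop, fluorescent peptide substrate and product resolved electrophoretically on LabChip 3000. Reaction ran 3 h at 25° C with 400 μM ATP, Mn^2+ cofactor, 5.0 nM wtKIT, 1 μM FAM-peptide, pH 7.5 HEPES buffer; no-enzyme wells defined full inhibition.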

[3] = target: T2, CSF-1R (Homo sapiens, UniProt P07333); assay: Caliper biochemical assay, CSF-1R; details: Table 6
T2 construct: purchased Invitrogen PV3249 (lot 662393N)
T2 sequence (P07333 20-972): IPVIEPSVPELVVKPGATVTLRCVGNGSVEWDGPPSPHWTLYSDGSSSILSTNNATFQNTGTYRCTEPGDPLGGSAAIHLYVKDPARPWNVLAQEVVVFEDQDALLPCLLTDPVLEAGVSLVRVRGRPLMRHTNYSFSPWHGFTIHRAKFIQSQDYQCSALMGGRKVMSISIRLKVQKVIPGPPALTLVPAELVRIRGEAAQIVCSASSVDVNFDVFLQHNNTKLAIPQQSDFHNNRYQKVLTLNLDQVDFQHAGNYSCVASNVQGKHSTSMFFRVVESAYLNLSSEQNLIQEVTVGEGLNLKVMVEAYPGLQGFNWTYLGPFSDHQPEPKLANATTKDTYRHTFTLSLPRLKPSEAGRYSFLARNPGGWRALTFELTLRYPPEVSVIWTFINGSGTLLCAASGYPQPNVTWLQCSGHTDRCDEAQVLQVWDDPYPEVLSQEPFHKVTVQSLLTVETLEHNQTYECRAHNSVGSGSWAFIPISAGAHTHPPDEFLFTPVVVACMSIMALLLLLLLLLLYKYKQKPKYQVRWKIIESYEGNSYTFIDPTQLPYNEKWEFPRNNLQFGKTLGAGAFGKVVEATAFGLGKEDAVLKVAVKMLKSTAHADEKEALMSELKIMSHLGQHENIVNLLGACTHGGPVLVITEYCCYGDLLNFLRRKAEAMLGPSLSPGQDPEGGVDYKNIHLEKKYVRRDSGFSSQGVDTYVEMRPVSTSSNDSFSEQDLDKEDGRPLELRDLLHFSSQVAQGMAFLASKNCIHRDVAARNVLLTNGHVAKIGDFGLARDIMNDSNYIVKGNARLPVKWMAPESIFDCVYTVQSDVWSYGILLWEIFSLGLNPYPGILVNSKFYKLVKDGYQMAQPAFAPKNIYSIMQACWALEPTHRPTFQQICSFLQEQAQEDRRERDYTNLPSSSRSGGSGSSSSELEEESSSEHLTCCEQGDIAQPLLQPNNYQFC
Description: (§1) Enzyme, substrate, and cofactors (ATP and Mn^2+) are combined in a well of a microtiter plate and incubated for 3 hours at 25° C. At the end of the incubation, the reaction is quenched by the addition of an EDTA-containing buffer. Substrate and product are separated electrophoretically using the microfluidic-based LabChip 3000 Drug Discovery System from Caliper Life Sciences* and quantitated by fluorescence intensity.
(§2) The substrate used in the CSF-1R and PDGFRα assay is FAM-[…]-CONH2 (FAM is carboxyfluorescein). Peptide should be >95% purity. The substrate for the KIT assay is FAM-[…]-NH2.
(§3) • 1. To a well of a 384-well plate add 5 μL of 2× enzyme buffer (or control) • 2. Add 100 nL of 100× compound. • 3. Add 5 μL of 2× substrate buffer. • 4. Incubate plate at 25° C. for 3 hours. • 5. Add 10 uL of […]. • 6. Read plate LabChip 3000 Drug Discovery System
(§4) • 3 hours at 25° C. where 100% Inhibitor: No enzyme.

[4] = target: T3, PDGFRα (Homo sapiens, UniProt P16234); assay: Caliper biochemical assay, PDGFRα; details: Table 6
T3 construct: purchased Millipore 14-467 (lot 26321_ACTI)
T3 sequence (P16234 24-1089): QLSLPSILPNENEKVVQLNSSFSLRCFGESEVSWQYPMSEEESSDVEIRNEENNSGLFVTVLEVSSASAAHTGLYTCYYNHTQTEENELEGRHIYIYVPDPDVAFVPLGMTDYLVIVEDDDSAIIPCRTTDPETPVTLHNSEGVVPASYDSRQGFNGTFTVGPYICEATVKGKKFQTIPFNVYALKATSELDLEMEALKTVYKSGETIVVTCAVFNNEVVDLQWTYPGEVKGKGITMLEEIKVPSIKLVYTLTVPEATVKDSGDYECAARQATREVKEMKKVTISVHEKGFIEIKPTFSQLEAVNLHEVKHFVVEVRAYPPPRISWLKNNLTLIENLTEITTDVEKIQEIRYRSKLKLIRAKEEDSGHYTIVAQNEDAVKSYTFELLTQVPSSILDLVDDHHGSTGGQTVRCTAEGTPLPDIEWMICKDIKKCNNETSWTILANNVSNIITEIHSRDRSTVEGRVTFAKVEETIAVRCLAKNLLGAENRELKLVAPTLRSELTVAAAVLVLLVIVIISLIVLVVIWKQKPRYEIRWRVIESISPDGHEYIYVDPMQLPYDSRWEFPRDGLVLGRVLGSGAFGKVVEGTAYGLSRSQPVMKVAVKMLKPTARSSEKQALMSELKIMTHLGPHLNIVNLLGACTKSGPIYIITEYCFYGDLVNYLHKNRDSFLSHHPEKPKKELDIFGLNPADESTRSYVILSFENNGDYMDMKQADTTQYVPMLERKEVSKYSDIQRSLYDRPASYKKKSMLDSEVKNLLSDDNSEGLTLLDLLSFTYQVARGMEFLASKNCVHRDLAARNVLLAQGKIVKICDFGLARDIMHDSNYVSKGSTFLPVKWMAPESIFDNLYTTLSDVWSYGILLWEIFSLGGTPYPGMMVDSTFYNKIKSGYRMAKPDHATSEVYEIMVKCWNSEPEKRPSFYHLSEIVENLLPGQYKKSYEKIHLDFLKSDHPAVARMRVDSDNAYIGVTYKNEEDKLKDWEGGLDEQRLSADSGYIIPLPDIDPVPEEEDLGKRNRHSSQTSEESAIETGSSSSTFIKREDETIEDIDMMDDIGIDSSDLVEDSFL
Description: as §1, §2, §3, §4

[5] = target: T4, BCRP (BCRP-MDCKII monolayer) (Homo sapiens, UniProt Q9UNQ0); assay: MDCKII-BCRP bidirectional transport assay; format: in vitro ADME; details: for MDCK-BCRP: Papp A-B: apical to basolateral
T4 construct: host or cells: MDCKII (canine kidney) cells
T4 sequence (Q9UNQ0 1-655): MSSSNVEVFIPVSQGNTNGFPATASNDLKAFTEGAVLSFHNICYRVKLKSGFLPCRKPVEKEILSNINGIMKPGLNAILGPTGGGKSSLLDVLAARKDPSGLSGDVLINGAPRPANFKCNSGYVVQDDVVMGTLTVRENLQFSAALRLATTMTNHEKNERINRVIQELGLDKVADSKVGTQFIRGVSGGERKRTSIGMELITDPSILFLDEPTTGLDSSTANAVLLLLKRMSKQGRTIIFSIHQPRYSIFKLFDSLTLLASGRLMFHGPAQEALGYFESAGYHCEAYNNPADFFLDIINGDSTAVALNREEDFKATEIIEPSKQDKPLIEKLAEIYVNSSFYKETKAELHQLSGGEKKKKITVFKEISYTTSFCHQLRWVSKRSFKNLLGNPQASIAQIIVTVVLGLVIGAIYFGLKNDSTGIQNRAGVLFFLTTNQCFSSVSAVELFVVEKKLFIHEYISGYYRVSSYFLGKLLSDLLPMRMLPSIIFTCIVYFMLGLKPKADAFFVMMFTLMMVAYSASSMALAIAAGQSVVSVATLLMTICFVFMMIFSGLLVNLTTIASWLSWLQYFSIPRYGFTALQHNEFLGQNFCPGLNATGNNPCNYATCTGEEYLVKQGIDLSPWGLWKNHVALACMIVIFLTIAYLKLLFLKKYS
Outline: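 Efflux ratios were derived from Papp values, alongside recovery, with compounds quantified by LC-MS/MS. Both directions were tested in duplicate across BCRP-MDCKII monolayers used on days 12–15. Incubation ran 120 min at 37° C, 5% CO2, after a 15 min preincubation in assay buffer.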

[6] = Kinetic solubility assay; format: physicochemical; details: kinetic solubility, 50 mM PB (pH 7.4), shaken 24 hours at RT
Outline: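 Concentration in the filtrate was determined by UPLC-UV or HPLC-UV with a standard curve. Before that, compound (10 mM DMSO stock) in 50 mM PB at pH 7.4 was agitated 24 h at room temperature, then PTFE-filtered with centrifugation.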

T1 sequence (P10721 26-976): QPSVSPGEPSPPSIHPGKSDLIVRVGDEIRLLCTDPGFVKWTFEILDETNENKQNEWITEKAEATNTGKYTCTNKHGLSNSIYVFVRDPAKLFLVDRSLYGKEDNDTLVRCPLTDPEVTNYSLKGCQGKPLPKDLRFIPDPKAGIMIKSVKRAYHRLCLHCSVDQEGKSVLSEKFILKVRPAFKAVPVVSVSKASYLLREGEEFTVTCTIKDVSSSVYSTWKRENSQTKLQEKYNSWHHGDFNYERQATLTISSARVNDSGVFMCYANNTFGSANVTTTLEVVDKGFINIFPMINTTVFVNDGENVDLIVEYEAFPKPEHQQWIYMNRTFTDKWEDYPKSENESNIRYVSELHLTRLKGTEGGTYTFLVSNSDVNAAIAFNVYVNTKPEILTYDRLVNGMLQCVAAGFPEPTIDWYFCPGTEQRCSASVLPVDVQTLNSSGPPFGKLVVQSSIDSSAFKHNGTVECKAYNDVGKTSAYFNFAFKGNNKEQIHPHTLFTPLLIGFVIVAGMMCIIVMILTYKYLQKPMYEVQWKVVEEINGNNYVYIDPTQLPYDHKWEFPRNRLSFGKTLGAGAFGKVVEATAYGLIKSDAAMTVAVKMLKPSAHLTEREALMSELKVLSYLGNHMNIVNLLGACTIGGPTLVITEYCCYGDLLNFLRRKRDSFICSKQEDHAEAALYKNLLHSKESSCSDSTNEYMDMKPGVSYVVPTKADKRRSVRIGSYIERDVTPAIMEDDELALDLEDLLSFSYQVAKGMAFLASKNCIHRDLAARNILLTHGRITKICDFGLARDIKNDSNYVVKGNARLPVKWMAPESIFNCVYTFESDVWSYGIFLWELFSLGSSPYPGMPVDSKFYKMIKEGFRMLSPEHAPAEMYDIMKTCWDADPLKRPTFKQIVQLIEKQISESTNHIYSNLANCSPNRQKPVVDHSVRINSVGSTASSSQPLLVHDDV

SMILES | IC50 [1] [nM] | IC50 [2] [nM] | IC50 [3] [nM] | IC50 [4] [nM] | MDCK-BCRP: Efflux Ratio [5] | MDCK-BCRP: Papp A-B [5] | Solubility (μM) [6]
Cc1nc(-c2ccc(C)c(NC(=O)c3cnc4ccc(N)cn34)c2)no1 [Compound I-219] | ≤ 50 | ≤ 50 | 50 to 500 | 500 to 5000 | 37 | 0.79 10^−6 cm/s | *** (a solubility greater than 2 μM and less than or equal to 10 μM)
COC(=O)N1CC(c2nc(-c3ccc(C)c(NC(=O)c4cnc5cc(OC(C)(C)CO)ccn45)c3)no2)C1 [Compound I-228] | 50 to 500 | ≤ 50 | ≤ 50 | 50 to 500 | 22.9 | 1.08 10^−6 cm/s | ** (a solubility greater than 10 μM and less than or equal to 50 μM)
COC(=O)N1CC(c2nc(-c3ccc(C)c(NC(=O)c4cnc5cc(OCCO)ccn45)c3)no2)C1 [Compound I-264] | ≤ 50 | ≤ 50 | ≤ 50 | 50 to 500 | 24.2 | 0.71 10^−6 cm/s | ** (a solubility greater than 10 μM and less than or equal to 50 μM)
COC(=O)N1CC(c2nc(-c3ccc(C)c(NC(=O)c4cnn5ccc(C#N)cc45)c3)no2)C1 [Compound I-265] | 50 to 500 | 50 to 500 | 5000 to 30000 | 5000 to 30000 | 19.4 | 1 10^−6 cm/s | ** (a solubility greater than 10 μM and less than or equal to 50 μM)
Cc1ccc(-c2noc(CC(=O)OCc3ccccc3)n2)cc1NC(=O)c1cnc2ccccn12 [Compound I-322] | – | ≤ 50 | 50 to 500 | 5000 to 30000 | 2.7 | 1.38 10^−6 cm/s | **** (a solubility less than or equal to 2 μM)
COC1(C(F)F)CC(c2nc(-c3ccc(C)c(NC(=O)c4cnc5ccccn45)c3)no2)C1 (stereo not shown) [Compound I-325] | – | ≤ 50 | ≤ 50 | 50 to 500 | 1.39 | 11.4 10^−6 cm/s | **** (a solubility less than or equal to 2 μM)
Cc1ccc(-c2noc(C34COC(C)(C3)C4)n2)cc1NC(=O)c1cnc2ccccn12 [Compound I-344] | – | ≤ 50 | ≤ 50 | 500 to 5000 | 1.48 | 11.5 10^−6 cm/s | *** (a solubility greater than 2 μM and less than or equal to 10 μM)
Cc1ccc(-c2noc(C3CC(Oc4ccccc4)C3)n2)cc1NC(=O)c1cnc2ccccn12 (stereo not shown) [Compound I-347] | – | ≤ 50 | 50 to 500 | 500 to 5000 | 1.28 | 0.17 10^−6 cm/s | **** (a solubility less than or equal to 2 μM)
Cc1ccc(-c2noc(C3CC(Oc4ccccc4)C3)n2)cc1NC(=O)c1cnc2ccccn12 (stereo not shown) [Compound I-348] | – | ≤ 50 | 50 to 500 | 500 to 5000 | 2.37 | 0.13 10^−6 cm/s | *** (a solubility greater than 2 μM and less than or equal to 10 μM)
Cc1ccc(-c2noc([C@H]3C[C@@H]3F)n2)cc1NC(=O)c1cnc2ccc(N3CCCC3)cn12 [Compound I-361] | – | ≤ 50 | ≤ 50 | 50 to 500 | 0.54 | 1.1 10^−6 cm/s | **** (a solubility less than or equal to 2 μM)
Cc1ccc(-c2noc([C@H]3C[C@@H]3F)n2)cc1NC(=O)c1cnc2cc(N3CCCC3)ccn12 [Compound I-365] | – | ≤ 50 | ≤ 50 | ≤ 50 | 1.21 | 4.73 10^−6 cm/s | *** (a solubility greater than 2 μM and less than or equal to 10 μM)
COC12CC(c3nc(-c4ccc(C)c(NC(=O)c5cnc6ccccn56)c4)no3)(C1)C2 [Compound I-368] | – | ≤ 50 | 50 to 500 | 50 to 500 | 1.09 | 15 10^−6 cm/s | **** (a solubility less than or equal to 2 μM)
Cc1ccc(-c2noc([C@H]3C[C@@H]3F)n2)cc1NC(=O)c1cnc2cc(Br)ccn12 [Compound I-383] | – | ≤ 50 | ≤ 50 | 50 to 500 | 1.74 | 7.55 10^−6 cm/s | **** (a solubility less than or equal to 2 μM)
Cc1ccc(-c2noc(C34CC(F)(C3)C4)n2)cc1NC(=O)c1cnc2ccccn12 [Compound I-392] | – | ≤ 50 | ≤ 50 | 500 to 5000 | 2.82 | 7.51 10^−6 cm/s | *** (a solubility greater than 2 μM and less than or equal to 10 μM)

Source: patent US20240254119A1 (THIRD HARMONIC BIO, INC., priority 2022, published 2024)
